Measurements published in patent US20180200257A1, “METHODS FOR THE TREATMENT OF INFLAMMATORY DISORDERS” (Galapagos NV, priority 2015, published 2018).

System: subjects with moderately to severely active RA who have an inadequate response to methotrexate (MTX)
Test: Study 1 (add-on to MTX) - Alanine Aminotransferase (ALT) levels
Format: in vivo, human
Details: 12 weeks results
Method: Double-blind, placebo-controlled add on study in subjects with moderately to severely active RA who have an inadequate response to methotrexate (MTX) (oral or parenteral).
595 subjects randomized to one of 6 dose regimens of Compound 1 (dosed as [Compound 1:HCl:3H2O]) (3 dose levels administered either once or twice daily) or placebo on top of each subject's stable dose of MTX.
Compound 1 (dosed as [Compound 1:HCl:3H2O]) is dosed for twelve weeks once daily (q.d.) (50 mg, 100 mg or 200 mg) or twice daily (b.i.d.) (25 mg, 50 mg or 100 mg); or placebo.
At Week 12, the subjects on placebo who have not achieved 20% improvement in swollen joint count (SJC66) and tender joint count (TJC68) are re-randomized automatically to receive Compound 1 (dosed as a [Compound 1:HCl:3H2O]) either at 100 mg q.d. or 50 mg b.i.d. doses in a blinded fashion; subjects on 50 mg q.d. who have not achieved 20% improvement in SJC66 and TJC68 will be assigned to 100 mg q.d. and subjects on 25 mg b.i.d. that have not achieved a 20% improvement in SJC66 and TJC68 will be assigned to 50 mg b.i.d. Subjects who switch treatment at week 12 are handled as if they discontinued at week 12 for the purpose of statistical analysis, whereas subjects in the other groups will maintain their randomized treatment until Week 24.
ALT levels determination is available at Quest Diagnostics, Clinical Trials, Quest House, 125-135 Staines Road, Hounslow, Middlesex, TW3 3JB, United Kingdom under Catalogue n#84460.
ALT catalyzes the exchange of the amino group of alanine with the oxogroup of 2-ketoglutarate to form pyruvate and glutamate. In the presence of lactic dehydrogenase, pyruvate reacts with NADH to form NAD+, measured spectrophotometrically. Guidelines for the ALT value have been issued by the association for Clinical Biochemistry and Laboratory Medicine, 130-132 Tooley Street LONDON SE1 2TU, united Kingdom, wherein the ALT value should be below 34 U/l in Female and below 52 U/L in male.

Structure (SMILES): O=C(Nc1nc2cccc(-c3ccc(CN4CCS(=O)(=O)CC4)cc3)n2n1)C1CC1 [Compound 1, cyclopropanecarboxylic acid {5-[4-(1,1-dioxo-thiomorpholin-4-ylmethyl)-phenyl]-[1,2,4]triazolo[1,5-a]pyridin-2-yl}-amide]
- Study 1 - ALT Mean CFB (50 mg q.d., week 1): 1 IU/L
- Study 1 - ALT Mean percentage CFB (50 mg q.d., week 1): 5%
- Study 1 - ALT Mean CFB (50 mg q.d., week 2): −1 IU/L
- Study 1 - ALT Mean percentage CFB (50 mg q.d., week 2): 0%
- Study 1 - ALT Mean CFB (50 mg q.d., week 4): −1 IU/L
- Study 1 - ALT Mean percentage CFB (50 mg q.d., week 4): 4%
- Study 1 - ALT Mean CFB (50 mg q.d., week 8): 0 IU/L
- Study 1 - ALT Mean percentage CFB (50 mg q.d., week 8): 9%
- Study 1 - ALT Mean CFB (50 mg q.d., week 12): 0 IU/L
- Study 1 - ALT Mean percentage CFB (50 mg q.d., week 12): 12%
- Study 1 - ALT Mean CFB (100 mg q.d., week 1): 3 IU/L
- Study 1 - ALT Mean percentage CFB (100 mg q.d., week 1): 14%
- Study 1 - ALT Mean CFB (100 mg q.d., week 2): 1 IU/L
- Study 1 - ALT Mean percentage CFB (100 mg q.d., week 2): 9%
- Study 1 - ALT Mean CFB (100 mg q.d., week 4): 1 IU/L
- Study 1 - ALT Mean percentage CFB (100 mg q.d., week 4): 9%
- Study 1 - ALT Mean CFB (100 mg q.d., week 8): 2 IU/L
- Study 1 - ALT Mean percentage CFB (100 mg q.d., week 8): 15%
- Study 1 - ALT Mean CFB (100 mg q.d., week 12): 2 IU/L
- Study 1 - ALT Mean percentage CFB (100 mg q.d., week 12): 16%
- Study 1 - ALT Mean CFB (200 mg q.d., week 1): 2 IU/L
- Study 1 - ALT Mean percentage CFB (200 mg q.d., week 1): 11%
- Study 1 - ALT Mean CFB (200 mg q.d., week 2): 1 IU/L
- Study 1 - ALT Mean percentage CFB (200 mg q.d., week 2): 16%
- Study 1 - ALT Mean CFB (200 mg q.d., week 4): 1 IU/L
- Study 1 - ALT Mean percentage CFB (200 mg q.d., week 4): 15%
- Study 1 - ALT Mean CFB (200 mg q.d., week 8): 4 IU/L
- Study 1 - ALT Mean percentage CFB (200 mg q.d., week 8): 31%
- Study 1 - ALT Mean CFB (200 mg q.d., week 12): 3 IU/L
- Study 1 - ALT Mean percentage CFB (200 mg q.d., week 12): 34%
- Study 1 - ALT Mean CFB (2 × 25 mg b.i.d., week 1): −1 IU/L
- Study 1 - ALT Mean percentage CFB (2 × 25 mg b.i.d., week 1): 4%
- Study 1 - ALT Mean CFB (2 × 25 mg b.i.d., week 2): −2 IU/L
- Study 1 - ALT Mean percentage CFB (2 × 25 mg b.i.d., week 2): 2%
- Study 1 - ALT Mean CFB (2 × 25 mg b.i.d., week 4): −1 IU/L
- Study 1 - ALT Mean percentage CFB (2 × 25 mg b.i.d., week 4): 9%
- Study 1 - ALT Mean CFB (2 × 25 mg b.i.d., week 8): 0 IU/L
- Study 1 - ALT Mean percentage CFB (2 × 25 mg b.i.d., week 8): 11%
- Study 1 - ALT Mean CFB (2 × 25 mg b.i.d., week 12): 1 IU/L
- Study 1 - ALT Mean percentage CFB (2 × 25 mg b.i.d., week 12): 21%
- Study 1 - ALT Mean CFB (2 × 50 mg b.i.d., week 1): 1 IU/L
- Study 1 - ALT Mean percentage CFB (2 × 50 mg b.i.d., week 1): 8%
- Study 1 - ALT Mean CFB (2 × 50 mg b.i.d., week 2): 1 IU/L
- Study 1 - ALT Mean percentage CFB (2 × 50 mg b.i.d., week 2): 13%
- Study 1 - ALT Mean CFB (2 × 50 mg b.i.d., week 4): 3 IU/L
- Study 1 - ALT Mean percentage CFB (2 × 50 mg b.i.d., week 4): 24%
- Study 1 - ALT Mean CFB (2 × 50 mg b.i.d., week 8): 2 IU/L
- Study 1 - ALT Mean percentage CFB (2 × 50 mg b.i.d., week 8): 20%
- Study 1 - ALT Mean CFB (2 × 50 mg b.i.d., week 12): 2 IU/L
- Study 1 - ALT Mean percentage CFB (2 × 50 mg b.i.d., week 12): 28%
